Data: ChEMBL document CHEMBL1201862, “PubChem BioAssay data set” (2004)
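These data come from cells grown in 96-well plates and exposed to compound for 48 hours at five concentrations. Abbreviation: GI50, concentration required for 50% inhibition of growth.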 Activity calls are given as the source filed them. Rule as the data show it: active = GI50 up to about 1.1 µM and inactive = higher.

Assays:
Assay in all cases: NCI anticancer screen, dose series, 48 h
[1] = system: A498
[2] = system: SK-MEL-28
[3] = system: U-251
[4] = system: OVCAR-3
[5] = system: Malme-3M
[6] = system: M19-MEL
[7] = system: SNB-19
[8] = system: SK-MEL-5
[9] = system: OVCAR-8
[10] = system: UO-31
[11] = system: SR
[12] = system: NCI-H23
[13] = system: XF498
[14] = system: SF-268
[15] = system: HCT-116
[16] = system: SNB-75
[17] = system: OVCAR-5
[18] = system: EKVX
[19] = system: MOLT-4
[20] = system: RPMI-8226

Measured: GI50

O=P(CCOc1ccccc1OCCP(=O)(c1ccccc1)c1ccc2c(c1)OCCOCCOCCOCCO2)(c1ccccc1)c1ccc2c(c1)OCCOCCOCCOCCO2 (stereo unspecified)
inactive: [1] > 100 µM | [2] > 100 µM | [3] > 100 µM | [4] > 100 µM | [5] > 100 µM | [6] > 100 µM | [7] > 100 µM | [8] > 100 µM | [9] > 100 µM | [10] > 100 µM | [11] > 100 µM | [12] > 100 µM | [13] > 100 µM | [14] > 100 µM | [15] > 100 µM | [16] > 100 µM | [17] > 100 µM | [18] > 100 µM | [19] > 100 µM | [20] > 100 µM

CC(C)(C)[Si](OC1CCOC1=O)(c1ccccc1)c1ccccc1 (stereo unspecified)
inactive: [1] 25.3 µM | [2] 22.3 µM | [3] 14.7 µM | [4] 13.1 µM | [5] 16.5 µM | [6] 19.2 µM | [7] 29.6 µM | [8] 13.4 µM | [9] 23.4 µM | [10] 27.1 µM | [11] > 10 µM | [12] 19.4 µM | [13] 11.1 µM | [14] 23 µM | [15] 13.6 µM | [16] 23.6 µM | [17] 26.7 µM | [18] 31.3 µM | [19] 17.5 µM | [20] 29 µM

COc1c(Cl)cc(Cl)cc1S(=O)O
inactive: [1] > 100 µM | [2] > 100 µM | [3] > 100 µM | [4] > 100 µM | [5] > 100 µM | [6] > 100 µM | [7] > 100 µM | [10] > 100 µM | [11] > 100 µM | [12] > 100 µM | [13] > 100 µM | [14] > 100 µM | [15] > 100 µM | [16] > 100 µM | [17] > 100 µM | [18] > 100 µM | [19] > 100 µM

CC[C@@H]1C[C@@H]2CN3CCc4c([nH]c5ccc(OC)cc45)C(COC(=O)c4ccc(OC)c(OC)c4)(C2)C13
inactive: [1] 21 µM | [2] 43.3 µM | [3] 16.5 µM | [4] 16.1 µM | [5] > 10 µM | [6] 36 µM | [7] 37.6 µM | [9] 31.6 µM | [10] 16.8 µM | [11] 13.6 µM | [12] 10.3 µM | [13] 17.3 µM | [14] 33 µM | [15] 4.34 µM | [16] 24.5 µM | [17] 22.6 µM | [18] 53.5 µM | [19] 11.4 µM | [20] 16.1 µM

CON(C)C(=O)C(Cc1ccccc1)NC(=O)OCc1ccccc1 (stereo unspecified)
inactive: [1] > 100 µM | [2] > 100 µM | [3] > 100 µM | [4] > 100 µM | [5] 75.5 µM | [6] > 100 µM | [7] > 100 µM | [8] 97.7 µM | [9] > 100 µM | [10] 71.4 µM | [11] > 100 µM | [12] > 100 µM | [13] 64.3 µM | [14] > 100 µM | [15] > 100 µM | [16] 33.3 µM | [17] > 100 µM | [18] > 100 µM | [19] > 100 µM | [20] > 100 µM
